# Experiments:
# mouse EpiSCs = test: Mouse EpiSC self-renewal culture; type: cell-based; conditions: compared to IWR-1, XAV939 and JW55
# Excerpt: We therefore reasoned that if CHIR induces EpiSC differentiation through stabilization of β-catenin, de-stabilization of β-catenin might promote EpiSC self-renewal. We tested this hypothesis by administering the tankyrase inhibitor XAV939 to mouse EpiSC cultures. XAV939-mediated inhibition of tankyrase stabilizes Axin, leading to the formation of the β-catenin destruction complex, composed of GSK3, Axin and adenomatous polyposis coli (APC) (Huang et al., 2009). […] EpiSCs cultured in CHIR/XAV could be routinely passaged by single-cell dissociation and replating onto gelatin-coated dishes, and could be cryo-preserved and recovered at high efficiency by standard techniques.
# final concentrations: CHIR99021 (3 μM), PD0325901 (1 μM), XAV939 (Sigma, 2 μM), IWR-1 (Sigma, 2.5 μM), IWP-2 (Stemgent, 2.5 μM), Pyrvinium (Sigma, 100 nM), recombinant human FGF2 (PeproTech, 10 ng/ml), and recombinant human activin A (PeproTech, 10 ng/ml). CHIR99021 and PD0325901 were synthesized in the Division of Signal Transduction Therapy, University of Dundee, UK.
# (§1) The basal medium for mouse EpiSC culture is the conventional mouse ESC medium, which consists of GMEM (Sigma) supplemented with 10% fetal bovine serum (FBS) (Hyclone), 2 mM L-glutamine (Invitrogen), 1 mM sodium pyruvate (Invitrogen), 1% nonessential amino acids (Invitrogen), and 0.1 mM (3-mercaptoethanol. Mouse EpiSCs were derived and maintained in the basal medium supplemented with FGF2/activin, CHIR/XAV, or CHIR/IWR-1. The basal medium for rat EpiSC culture is N2B27 (Tong et al., 2011), which was prepared by mixing 500 ml of DMEM/F12 (Invitrogen) with 500 ml of Neurobasal™ medium (Invitrogen), and adding 5 ml of N2 (Invitrogen), 10 ml of B27 (Invitrogen), 5 ml of Glutamax™ (Invitrogen), and 1 ml of 0.1 M β-mercaptoethanol (Sigma). The basal medium for human ESC culture consists of Knockout™ DMEM/F12 supplemented with 20% KSR (Invitrogen), 1% nonessential amino acids, 2 mM L-glutamine, and 0.1 mM (3-mercaptoethanol. Human ESCs were cultured in the basal medium supplemented with FGF2, CHIR/XAV, or CHIR/IWR-1.
# Post-implantation epiblasts were isolated from mouse or rat embryos and dissociated into small clumps as previously described (Chenoweth and Tesar, 2010). Epiblast fragments were placed into 4-well plates pre-coated with 0.1% gelatin (for mouse epiblasts) or pre-seeded with γ-irradiated mouse embryonic fibroblasts (MEFs) (for rat epiblasts) and cultured in either the FGF2/activin or the CHIR/XAV conditions. Emerging EpiSCs were trypsinized and expanded every 2-3 days at a subculture ratio of 1:4. Animal experiments were performed according to the investigator's protocols approved by the University of Southern California Institutional Animal Care and Use Committee.
# H9 human ESCs = test: Human ESC self-renewal culture; type: cell-based; conditions: compared to IWR-1, XAV939 and JW55
# Excerpt: As human ESCs share defining features with mouse EpiSCs (Hanna et al., 2010; Rossant, 2008; Tesar et al., 2007), we tested whether modulating β-catenin function can also promote human ESC self-renewal. […] Next, we examined the effect of CHIR/XAV and CHIR/IWR-1 on human ESC self-renewal. […] Similar results were obtained in H1 and HES3 human ESCs (data not shown). […] Moreover, human ESCs maintained in CHIR/IWR-1 express pluripotency markers Oct4, Nanog and Sox2 (FIG. 7E), and retain the ability to differentiate into cells of all three germ layers, both in vitro and in vivo (FIGS. 7F and 7G).
# as §1
# H1, H9, HES-2 and HES-3 human ESC lines were kindly provided by the University of Southern California Stem Cell Core Facility. Human ESCs were routinely maintained on γ-irradiated MEF feeders in Knockout™ DMEM medium (Invitrogen) supplemented with 20% Knockout™ serum replacement (KSR; Invitrogen), 10 ng/ml FGF2 (PeproTech), 1% nonessential amino acids, 2 mM L-glutamine, and 0.1 mM β-mercaptoethanol. […]
# Wnt pathway = conditions: relative to IWR-1; cited from earlier work
structure (smiles),measurement,setting,value
"O=C1C([C@H]2CC[C@H](C(=O)Nc3cccc4cccnc34)CC2)C(=O)[C@H]2[C@H]3CC[C@H](C3)[C@@H]12 (stereo partly drawn) [53AH, (1R,4r)-4-((2s,3aR,4R,7S,7aS)-1,3-dioxooctahydro-1H-4,7-methanoinden-2-yl)-N-(quinolin-8-yl)cyclohexanecarboxamide]",robustness for long-term expansion of mouse EpiSCs,mouse EpiSCs,more robust for long-term expansion
same,robustness for long-term expansion of human ESCs,H9 human ESCs,more robust for long-term expansion
same,potency in Wnt inhibition compared to IWR-1,Wnt pathway,5 fold

# Reference: patent US20130273649A1, “Culture medium for pluripotent stem cells” (UNIVERSITY OF SOUTHERN CALIFORNIA, priority 2012, published 2013)
